This assay deals with Lin28A. In words: Pull-down RNA ELISA, gymnosis, anti-Lin28A. The class given is cell-based, human. Particulars: 3'-biotin conjugates, K562 cells, 2 µM, 24 h; streptavidin plate; vs mock or FUS antibody. The source says:
Humans express two paralogs of the protein, LIN28 (Lin28A) and LIN28B (Lin28B), that play key roles in development, metabolism, and pluripotency. ^[34] Lin28 proteins are abundantly expressed during embryonic development, as well as in several tumors and tumor‐derived cell lines. ^[35] […] In order to confirm that RNA‐PROTACs bind to endogenous Lin28 in cells, we performed a pull‐down RNA ELISA assay that we have previously described. ^[36] Thus, we conjugated a biotin group to the 3′ ends of ORN3P1 and ORN7P1 and added these reagents separately on to myelogenous leukemia K562 cells. We incubated lysates from treated cells on streptavidin‐coated plates so as to capture the RNA‐PROTACs present in the cell lysates. We then assayed for the presence of Lin28A in the plates using an anti‐Lin28A antibody and a negative control anti‐FUS antibody. […]
The protein extracts (12-17 µg) were run on a 4-20% SDS-PAGE and transferred on a nitrocellulose blotting membrane 0.22 µm (GE Healthcare) using the Trans-Blot transfer device (Biorad). […] The proteins were detected using the anti-lin28a antibody (Cell Signaling technology, D9F5), anti-lin28b antibody (Cell Signaling technology, 4196S), anti-rbfox1 (NovusBio, NBP2-13169SS), at 1:1000 and anti-hrnp c antibody […]
on a ChemiDoc MP imager (Biorad). The intensity of the signal was quantified using the ImageJ-Fiji software. […]
Background: In an ELISA, binding on a coated surface is turned into a signal by an enzyme label.

Molecules are shown by their SMILES.

For the compound `CC[C@H](C)[C@H](NC(=O)[C@H](Cc1ccc(O)cc1)NC(=O)[C@@H]1C[C@@H](O)CN1C(=O)[C@H](C)NC(=O)[C@H](CC(C)C)NC(=O)CCCCCNC(=O)[C@@H](N)CSC1CC(=O)N(CCOP(=O)(S)OC[C@H]2O[C@@H](n3cnc4c(N)ncnc43)[C@H](OCCOC)[C@@H]2OP(=O)(S)OC[C@H]2O[C@@H](n3cnc4c(=O)[nH]c(N)nc43)[C@H](OCCOC)[C@@H]2OP(=O)(S)OC[C@H]2O[C@@H](n3cnc4c(=O)[nH]c(N)nc43)[C@H](OCCOC)[C@@H]2OP(=O)(S)OC[C@H]2O[C@@H](n3cnc4c(N)ncnc43)[C@H](OCCOC)[C@@H]2OP(=O)(S)OC[C@H]2O[C@@H](n3cnc4c(=O)[nH]c(N)nc43)[C@H](OCCOC)[C@@H]2OP(=O)(S)OC[C@H]2O[C@@H](n3cnc4c(N)ncnc43)[C@H](OCCOC)[C@@H]2OP(=O)(S)OC[C@H]2O[C@@H](n3cc(C)c(=O)[nH]c3=O)[C@H](OCCOC)[C@@H]2O)C1=O)C(=O)O` (stereo partly shown) [ORN3P1], the Lin28A pull-down signal entry is given as “strong signal for Lin28A protein”.

The values above are taken from publication PMC7898822, “RNA‐PROTACs: Degraders of RNA‐Binding Proteins” (Angewandte Chemie (International Ed. in English), 2020).
